# Measured values from patent US8541419B2, “Isotopically enriched pyrimidin-5-yl acetic acid derivatives as CRTH2 antagonists” (Actimis Pharmaceuticals, Inc., priority 2008, dated 2013).
# Values joined by “and” are separate entries in the source; they are usually repeats but may differ in a detail not shown here. Equal entries are not always repeated. Marks after values point to notes of the source that are not given here.
# How the values were obtained:
# [1] = Pharmacokinetics in male Han Wistar rats after simultaneous intravenous administration; type: in vivo; set-up: AUC0-t / AUC0-∞: concentration or dose not given beside the values
# Text: (§1) The pharmacokinetics and bioavailability of [4,6-bis([^2H6]dimethylamino)-2-(4-{[4-(trifluoromethyl)benzoyl]amino}benzyl)pyrimidin-5-yl]acetic acid (1) and [4,6-bisdimethylamino)-2-(4-{[4-(trifluoromethyl)benzoyl]amino}benzyl)pyrimidin-5-yl]acetic acid (“the undeuterated analog”) were compared in male Han Wistar rats after intravenous (“IV”) and oral (“PO”) administration.
# (§2) The following additional acronyms and definitions are used in the study: • AUC0-∞—area under the plasma concentration time curve from time 0 to infinity • AUC0-t—area under the plasma concentration time curve from time 0 to the last quantifiable timepoint • AUMC—area under the first moment curve • CL—total plasma clearance • Cmax—maximum plasma concentration • MRT—mean residence time • PEG—polyethylene glycol • t½—elimination half-life • tmax—time of maximum plasma concentration • Vss—steady-state volume of distribution
# (§3) Compound 1 (1.02 mg/kg) and the undeuterated analog (1.0 mg/kg) and were administered simultaneously as a solution in PEG 400:ethanol:water (40:10:50) both intravenously and orally (by gavage) to four male rats per dose route. The doses were equivalent on a molar basis. Blood samples were collected serially up to 48 h postdose. […] Noncompartmental pharmacokinetic parameters were calculated and the results compared statistically using paired t-tests, since the simultaneous administration of both compounds allows each rat to serve as its own control.
# [2] = Pharmacokinetics and bioavailability in male Han Wistar rats after simultaneous oral administration; type: in vivo; set-up: AUC0-t / AUC0-∞: concentration or dose not given beside the values
# Text: as §1, §2, §3
# CRTH2 = molecular target: T1, CRTH2 (Homo sapiens, UniProt Q9Y5Y4); assay: Biological inhibitory activity in vitro
# T1 sequence (Q9Y5Y4 1-395): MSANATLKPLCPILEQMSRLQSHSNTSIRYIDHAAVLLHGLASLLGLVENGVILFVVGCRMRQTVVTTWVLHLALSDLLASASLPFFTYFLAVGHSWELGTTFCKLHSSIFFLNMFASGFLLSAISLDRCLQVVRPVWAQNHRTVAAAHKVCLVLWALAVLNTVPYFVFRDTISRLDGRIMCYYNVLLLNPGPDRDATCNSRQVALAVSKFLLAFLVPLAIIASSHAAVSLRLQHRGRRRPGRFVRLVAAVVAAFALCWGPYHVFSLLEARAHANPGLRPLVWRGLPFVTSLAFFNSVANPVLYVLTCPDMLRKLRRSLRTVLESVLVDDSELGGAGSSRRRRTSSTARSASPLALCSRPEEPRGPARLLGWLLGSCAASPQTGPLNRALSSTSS
# [3] = male, Han Wistar, rat, in vivo, iv
# [4] = male, Han Wistar, rat, in vivo, po
# [5] = IV, individual rats, listed as H
# [6] = oral, individual rats, listed as H
structure (smiles),measurement,setting,value
"[2H]C([2H])([2H])N(c1nc(Cc2ccc(NC(=O)c3ccc(C(F)(F)F)cc3)cc2)nc(N(C([2H])([2H])[2H])C([2H])([2H])[2H])c1CC(=O)O)C([2H])([2H])[2H] [Compound 1, [4,6-bis([^2H6]dimethylamino)-2-(4-{[4-(trifluoromethyl)benzoyl]amino}benzyl)pyrimidin-5-yl]acetic acid]",AUC0-∞ higher than that of the undeuterated analog,[1]; [3],28%
same,"Extrapolated area of AUC0-∞, averaged, of total area",[1]; [3],< 0.15%
same,clearance as percent of that of the undeuterated analog,[1]; [3],80%
same,clearance relative to the unlabeled drug,"[1]; rat, in vivo",reduced clearance
same,plasma concentrations compared with the undeuterated analog,"[1]; rat, in vivo, iv",greater than those of the undeuterated analog
same,AUC0-t higher than that of the undeuterated analog,[2]; [4],71%
same,AUC0-∞ higher than that of the undeuterated analog,[2]; [4],63%
same,Cmax higher than that of the undeuterated analog,[2]; [4],42%
same,"Extrapolated area of AUC0-∞, averaged, of total area",[2]; [4],< 1.5%
same,tmax,"[2]; male, Han Wistar, rat, in vivo, po, 1.02 mg/kg",1 h
same,MRT,"[2]; male, Han Wistar, rat, in vivo, po, 1.02 mg/kg, MRT",2.61 ± 0.708 h
same,tmax,"[2]; male, Han Wistar, rat, in vivo, po, 1.02 mg/kg, tmax",0.5 h
same,Bioavailability,"[2]; male, Han Wistar, rat, in vivo, po, Bioavailability",52.5%
same,bioavailability relative to the unlabeled drug,"[2]; rat, in vivo",better bioavailability
same,plasma concentrations compared with the undeuterated analog,"[2]; rat, in vivo, po",greater than those of the undeuterated analog
same,biological inhibitory activity in vitro compared to the undeuterated analog,CRTH2,comparable
"CN(C)c1nc(Cc2ccc(NC(=O)c3ccc(C(F)(F)F)cc3)cc2)nc(N(C)C)c1CC(=O)O [Undeuterated Analog, reference compound]",Plasma Concentrations,"[1]; IV, 8 h, individual rats",64.0 ng/mL and 173 ng/mL and 88.4 ng/mL and 12.0 ng/mL
same,Plasma Concentrations,"[1]; IV, 8 h, mean",84.4 ng/mL
same,Plasma Concentrations,"[1]; IV, 24 h, individual rats",12.0 ng/mL and 4.78 ng/mL and 3.29 ng/mL and <1.00 ng/mL
same,Plasma Concentrations,"[1]; IV, 24 h, mean",5.02 ng/mL
same,Plasma Concentrations,"[1]; IV, 48 h, individual rats",1.01 ng/mL
same,t1/2,"[1]; IV, harmonic mean N=4, listed as H",3.23 ± 1.99 h and 3.23^b h
same,AUC0-t,[1]; [5],"14,700 nM · h and 23,300 nM · h and 24,300 nM · h and 9,020 nM · h"
same,AUC0-∞,[1]; [5],"14,700 nM · h and 23,300 nM · h and 24,400 nM · h and 9,090 nM · h"
same,CL,[1]; [5],2.25 mL/min/kg and 1.43 mL/min/kg and 1.36 mL/min/kg and 3.66 mL/min/kg
same,MRT,[1]; [5],2.43 h and 2.20 h and 1.26 h and 0.569 h
same,Vss,[1]; [5],0.328 L/kg and 0.189 L/kg and 0.103 L/kg and 0.125 L/kg
same,t1/2,[1]; [5],6.68 h and 3.12 h and 3.60 h and 2.03 h
same,CL,"[1]; IV, mean N=4, listed as H",2.17 ± 1.07 mL/min/kg and 2.17 mL/min/kg
same,MRT,"[1]; IV, mean N=4, listed as H",1.62 ± 0.861 h and 1.62 h
same,Vss,"[1]; IV, mean N=4, listed as H",0.186 ± 0.101 L/kg and 0.186 L/kg
same,Plasma Concentrations,"[2]; oral, 0.25 h, individual rats","959 ng/mL and 308 ng/mL and 1,520 ng/mL and 1,180 ng/mL and 1,910 nM and 614 nM and 3,030 nM and 2,350 nM"
same,Plasma Concentrations,"[2]; oral, 0.25 h, mean",992 ng/mL and 1980 nM
same,Plasma Concentrations,"[2]; oral, 0.5 h, individual rats","1,060 ng/mL and 355 ng/mL and 2,940 ng/mL and 1,590 ng/mL and 2,110 nM and 708 nM and 5,860 nM and 3,170 nM"
same,Plasma Concentrations,"[2]; oral, 0.5 h, mean","1,490 ng/mL and 2960 nM"
same,Plasma Concentrations,"[2]; oral, 1 h, individual rats","744 ng/mL and 191 ng/mL and 3,180 ng/mL and 1,220 ng/mL and 1,480 nM and 381 nM and 6,340 nM and 2,430 nM"
same,Plasma Concentrations,"[2]; oral, 1 h, mean","1,330 ng/mL and 2660 nM"
same,Plasma Concentrations,"[2]; oral, 2 h, individual rats","463 ng/mL and 104 ng/mL and 1,290 ng/mL and 548 ng/mL and 923 nM and 207 nM and 2,570 nM and 1,090 nM"
same,Plasma Concentrations,"[2]; oral, 2 h, mean",601 ng/mL and 1200 nM
same,Plasma Concentrations,"[2]; oral, 4 h, individual rats","68.4 ng/mL and 32.5 ng/mL and 559 ng/mL and 178 ng/mL and 64.8 nM and 1,120 nM and 355 nM"
same,Plasma Concentrations,"[2]; oral, 4 h, mean",209 ng/mL and 511 nM
same,Plasma Concentrations,"[2]; oral, 6 h, individual rats",22.0 ng/mL and 24.1 ng/mL and 387 ng/mL and 93.3 ng/mL and 43.9 nM and 48.1 nM and 772 nM and 186 nM
same,Plasma Concentrations,"[2]; oral, 6 h, mean",132 ng/mL and 262 nM
same,Plasma Concentrations,"[2]; oral, 8 h, individual rats",12.3 ng/mL and 18.7 ng/mL and 217 ng/mL and 76.8 ng/mL and 24.5 nM and 37.3 nM and 433 nM and 153 nM
same,Plasma Concentrations,"[2]; oral, 8 h, mean",81.2 ng/mL and 162 nM
same,Plasma Concentrations,"[2]; oral, 24 h, individual rats",<1.00 ng/mL and 2.99 ng/mL and 2.16 ng/mL and <1.99 nM and 5.96 nM and 4.31 nM
same,Plasma Concentrations,"[2]; oral, 24 h, mean",1.29 ng/mL and 2.57 nM
same,Plasma Concentrations,"[2]; oral, 48 h, individual rats",<1.00 ng/mL and 1.57 ng/mL and <1.99 nM and 3.13 nM
same,Plasma Concentrations,"[2]; oral, 48 h, mean",0.393 ng/mL and 0.783 nM
same,t1/2,"[2]; oral, harmonic mean N=4, listed as H",2.39 ± 2.11 h and 2.39^d h
same,AUC0-t,[2]; [6],"3,880 nM · h and 1,280 nM · h and 19,300 nM · h and 7,820 nM · h"
same,AUC0-∞,[2]; [6],"3,920 nM · h and 1,550 nM · h and 19,300 nM · h and 7,850 nM · h"
same,Bioavailability,[2]; [6],10.3% and 4.06% and 50.5% and 20.6%
same,CL/F,[2]; [6],8.48 mL/min/kg and 21.5 mL/min/kg and 1.72 mL/min/kg and 4.23 mL/min/kg
same,Cmax,[2]; [6],2.11 µM and 0.708 µM and 6.34 µM and 3.17 µM
same,MRT,[2]; [6],1.40 h and 4.25 h and 3.36 h and 3.47 h
same,t1/2,[2]; [6],1.10 h and 5.02 h and 2.57 h and 5.63 h
same,tmax,[2]; [6],0.5 h (3×) and 1 h
same,Cmax,"[2]; oral, mean N=4",3.08 µM
same,AUC0-t,"[2]; oral, mean N=4, listed as H","8,070 ± 7,950 nM · h and 8,070 nM · h"
same,AUC0-∞,"[2]; oral, mean N=4, listed as H","8,160 ± 7,880 nM · h and 8,160 nM · h"
same,Bioavailability,"[2]; oral, mean N=4, listed as H",21.3%
same,CL/F,"[2]; oral, mean N=4, listed as H",8.97^c ± 8.78^ mL/min/kg and 8.97 mL/min/kg
same,MRT,"[2]; oral, mean N=4, listed as H",3.12 ± 1.21 h and 3.12 h
same,Bioavailability,"[2]; oral, mean N=4, listed as the undeuterated analog",45.6%
same,tmax,"[2]; oral, median (range) N=4, listed as H",0.5 (0.5-1.0)^e h and 0.5^a h
